Laboratory results published in paper PMC12481576, “Barbituric Acid Derivatives as Covalent Inhibitors of Leishmania braziliensis Dihydroorotate Dehydrogenase” (Journal of Medicinal Chemistry, 2025).
Values joined by “and” are separate entries in the source; they are usually repeats but may differ in a detail not shown here. Equal entries are not always repeated. Where two headings read alike, the source gives them in different places.

Assays:
LbDHODH = LbDHODH (Leishmania braziliensis, UniProt E9AI53); test: biochemical; conditions: for IC50: LbDHODH
Outline: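 Screened at 100 μM with and without 4-h enzyme preincubation; DCIP reduction during DHO oxidation read at 610 nm every 3 s for 60 s in 50 mM Tris pH 8.15, 150 mM KCl, 0.1% Triton X-100, triplicate, 5% DMSO control. kinact/KI taken as slope of kobs versus inhibitor concentration (initial linear region).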

in vitro [1] = test: in vitro
Outline: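 Compounds at 10 μM final (5% DMSO) in PBS pH 7.4 in donor wells, PBS pH 7.4 acceptor, duplicate; incubated 6 h at room temperature. Donor, acceptor and initial donor (T0) concentrations quantified by LC-MS/MS.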

[2] = Mouse liver microsome stability in the absence of cofactors (NCF); conditions: mouse, microsomes, pH 7.4, % Remaining, T=60 NCF, 1 µM, 60 min, no cofactor (NCF)
in vitro [3] = conditions: microsomes; for microsomal CLint at 1 μM / remaining at 5 min, 1 μM: male, CD1, mouse; for remaining at 5 min, 1 μM / remaining at 10 min, 1 µM / remaining at 20 min, 1 µM / remaining at 0.5 h, 1 µM / remaining at 1 h, 1 µM: pH 7.4, % Remaining; for remaining at 5 min, 1 μM: T=5 min; for remaining at 10 min, 1 µM / remaining at 20 min, 1 µM / remaining at 0.5 h, 1 µM / remaining at 1 h, 1 µM: mouse; for remaining at 10 min, 1 µM: T=10 min; for remaining at 20 min, 1 µM: T=20 min; for remaining at 0.5 h, 1 µM: T=30 min, 30 min; for remaining at 1 h, 1 µM: T=60 min, 60 min
[4] = Cell viability / cytotoxicity assay (PrestoBlue, 72 h); type: cell-based; conditions: human; THP-1 cell line, 72 h, max 200 μM; read-out: CC50
Outline: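 PMA-differentiated THP-1 cells (150 ng/mL PMA, 48 h; then 24 h in fresh medium) were exposed to compounds in serial dilution from 200 μM for 72 h at 37 °C, 5% CO2. Viability was read by PrestoBlue fluorescence (ex 560/em 590 nm) after 2 h.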

[5] = test system: Leishmania braziliensis promastigotes; test: Leishmanicidal activity, promastigote growth (SYBR Green, 72 h); type: cell-based, Leishmania (V.) braziliensis (MHOM/BR/1975/M2904); conditions: Leishmania braziliensis, L. braziliensis promastigotes, max 200 μM
Outline: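 Promastigotes seeded at 4 × 10^6 parasites/mL with compounds in decreasing concentrations up to 200 μM, 0.5% DMSO final, 72 h.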

[6] = 0 h, pH 8.15, read-out: LbDHODH Activity±SD (%)
[7] = 4 h, pH 8.15, read-out: LbDHODH Activity±SD (%)
[8] = average of n=2, 10µM, PBS pH 7.4/7.4, 6h at room temperature
[9] = n=1, mouse liver microsomes, 1 µM, n=1
[10] = n=2, mouse liver microsomes, 1 µM, n=2

LbDHODH, sequence (E9AI53 entry or part of it): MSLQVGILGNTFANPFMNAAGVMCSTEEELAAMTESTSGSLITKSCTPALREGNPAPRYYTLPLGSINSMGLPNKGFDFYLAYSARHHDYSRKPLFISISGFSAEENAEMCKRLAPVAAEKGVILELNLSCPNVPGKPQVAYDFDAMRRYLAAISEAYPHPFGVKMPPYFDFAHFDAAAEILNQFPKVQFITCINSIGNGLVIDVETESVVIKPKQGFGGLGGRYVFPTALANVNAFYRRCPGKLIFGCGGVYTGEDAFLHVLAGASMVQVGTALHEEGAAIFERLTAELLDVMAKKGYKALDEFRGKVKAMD

COc1cc(C=C2C(=O)NC(=O)NC2=O)ccc1O [2c, 5-(4-Hydroxy-3-methoxybenzylidene)pyrimidine-2,4,6(1H,3H,5H)-trione]
activity at 0.390625 µM (LbDHODH; [6]): 96 ± 9%
activity at 0.78125 µM (LbDHODH; [6]): 92 ± 9%
activity at 1.5625 µM (LbDHODH; [6]): 82 ± 23%
activity at 3.125 µM (LbDHODH; [6]): 77 ± 7%
activity at 6.25 µM (LbDHODH; [6]): 46 ± 4%
activity at 12.5 µM (LbDHODH; [6]): 36 ± 8%
activity at 25 µM (LbDHODH; [6]): 22 ± 2%
activity at 50 µM (LbDHODH; [6]): 13 ± 1%
activity at 100 µM (LbDHODH; [6]): 7 ± 4%
activity at 200 µM (LbDHODH; [6]): 5 ± 0.4%
activity at 400 µM (LbDHODH; [6]): 6 ± 1%
activity at 0.390625 µM (LbDHODH; [7]): 102 ± 10%
activity at 0.78125 µM (LbDHODH; [7]): 97 ± 9%
activity at 1.5625 µM (LbDHODH; [7]): 96 ± 12%
activity at 3.125 µM (LbDHODH; [7]): 90 ± 6%
activity at 6.25 µM (LbDHODH; [7]): 86 ± 7%
activity at 12.5 µM (LbDHODH; [7]): 83 ± 8%
activity at 25 µM (LbDHODH; [7]): 72 ± 5%
activity at 50 µM (LbDHODH; [7]): 62 ± 8%
activity at 100 µM (LbDHODH; [7]): 52 ± 6%
activity at 200 µM (LbDHODH; [7]): 32 ± 2%
activity at 400 µM (LbDHODH; [7]): 23 ± 3%
IC50 (LbDHODH; IC50 0 h, without preincubation): 7 ± 1 µM
IC50 (LbDHODH; IC50 4 h, 4-h preincubation): 89 ± 4 µM
activity at 100 µM (LbDHODH; read-out: Single dose (0h) % activity): 7 ± 3%
activity at 100 µM (LbDHODH; read-out: Single dose (4h) % activity): 21 ± 5%
Calculated T-half (min), Average (mouse liver microsomes (CD1 male), 0.4 mg/ml protein, test conc 1 µM, average of n=1 and n=2): 6.0 min
Calculated T-half (min), n=1 (mouse liver microsomes (CD1 male), 0.4 mg/ml protein, test conc 1 µM, replicate n=1): 6.12 min and 6.1 min
Calculated T-half (min), n=2 (mouse liver microsomes (CD1 male), 0.4 mg/ml protein, test conc 1 µM, replicate n=2): 5.82 min and 5.8 min
Calculated CLint, app (µl/min/mg), n=1 (mouse liver microsomes, 0.4 mg/ml protein, 1 µM, replicate n=1): 283.1 µL/min/mg
Calculated CLint, app (µl/min/mg), n=2 (mouse liver microsomes, 0.4 mg/ml protein, 1 µM, replicate n=2): 297.8 µL/min/mg
Modified T-half (min), Average (mouse liver microsomes, 0.4 mg/ml, 1 µM, average, limited to T Half range 3.00 - […]): 6.0 min
Remarks (mouse microsomal stability study) (mouse liver microsomes, 0.4 mg/ml, 1 µM, NCF = no cofactor control): Low NCF
mouse liver microsomes T-half (mouse liver microsomes, NADPH, 1 μM): 6.0 min and 6 min
recovery at 6 h, 10 µM (in vitro [1]; PAMPA, pH 7.4, % Recovery n=1, replicate n=1, 10µM, PBS pH 7.4/7.4, 6h at room temperature): 86.6%
recovery at 6 h, 10 µM (in vitro [1]; PAMPA, pH 7.4, % Recovery n=2, replicate n=2, 10µM, PBS pH 7.4/7.4, 6h at room temperature): 96%
recovery at 6 h, 10 µM (in vitro [1]; PAMPA, pH 7.4, Avg % Recovery, average of n=2, 10µM, PBS pH 7.4/7.4, 6h at room temperature): 91.3%
Papp (in vitro [1]; PAMPA, pH 7.4, permeability, PBS pH 7.4, 10 μM, 6 h): 0.84 ×10⁻⁶ cm/s
Avg Log Pe (cm/sec) (in vitro [1]; [8]): -6.08 cm/sec and -6.1 cm/sec
Avg Pe (in vitro [1]; [8]): 8.43 nm/s and 8.4 nm/s
LogPe (cm/sec) n1 (in vitro [1]; replicate n1, calculation section, 10µM, PBS pH 7.4/7.4, 6h): -6.16 cm/sec
LogPe (cm/sec) n2 (in vitro [1]; replicate n2, calculation section, 10µM, PBS pH 7.4/7.4, 6h): -6.00 cm/sec
Pe (nm/sec) n=1 (in vitro [1]; replicate n=1, 10µM (5% DMSO), PBS pH 7.4/7.4, 6h at room temperature, LC-MS/MS): 6.94 nm/s and 6.9 nm/s
% Recovery n=1 (in vitro [1]; replicate n=1, 10µM, PBS pH 7.4/7.4, 6h at room temperature): 86.6%
Pe (nm/sec) n=2 (in vitro [1]; replicate n=2, 10µM (5% DMSO), PBS pH 7.4/7.4, 6h at room temperature, LC-MS/MS): 9.91 nm/s and 9.9 nm/s
% Recovery n=2 (in vitro [1]; replicate n=2, 10µM, PBS pH 7.4/7.4, 6h at room temperature): 96.0%
remaining at 1 h, 1 µM ([2]; n=1, mouse liver microsomes, n=1): 52.4%
remaining at 1 h, 1 µM ([2]; n=2, mouse liver microsomes, n=2): 51.5%
microsomal CLint at 1 μM (in vitro [3]; pH 7.4): 283 µL/min/mg
remaining at 5 min, 1 μM (in vitro [3]; [9]): 38.7%
remaining at 5 min, 1 μM (in vitro [3]; [10]): 50.5%
microsomal CLint at 1 μM (in vitro [3]; pH 7.4, Calculated CLint, app (µl/min/mg), Average, mouse liver microsomes, 0.4 mg/ml protein, 1 µM): 290 µL/min/mg
microsomal CLint at 1 μM (in vitro [3]; pH 7.4, Calculated CLint, app (µl/min/mg), n=1, mouse liver microsomes, 0.4 mg/ml protein, 1 µM, replicate n=1): 283 µL/min/mg
microsomal CLint at 1 μM (in vitro [3]; pH 7.4, Calculated CLint, app (µl/min/mg), n=2, mouse liver microsomes, 0.4 mg/ml protein, 1 µM, replicate n=2): 298 µL/min/mg
microsomal CLint at 1 μM (in vitro [3]; pH 7.4, mouse liver microsomes CLint, app, mouse liver microsomes, NADPH, 1 μM): 290 µL/min/mg
remaining at 10 min, 1 µM (in vitro [3]; [9]): 17.1%
remaining at 10 min, 1 µM (in vitro [3]; [10]): 17.8%
remaining at 20 min, 1 µM (in vitro [3]; [9]): 9.8%
remaining at 20 min, 1 µM (in vitro [3]; [10]): 9.5%
remaining at 0.5 h, 1 µM (in vitro [3]; [9]): 6.6%
remaining at 0.5 h, 1 µM (in vitro [3]; [10]): 9.5%
remaining at 1 h, 1 µM (in vitro [3]; [9]): 12.9%
remaining at 1 h, 1 µM (in vitro [3]; [10]): 13.3%
CC50 at 72 h [4]: > 200 µM
EC50 [5]: > 200 µM
